# System: SARS-CoV-2
# Assay: microbe, parasite or virus in culture
# Conditions: Severe acute respiratory syndrome coronavirus 2, Vero C1008, 48 h
SMILES,IC50,IC50 (read-out: pIC50 (converted))
CCOCCOc1ccccc1C(N)=O [ETOSALAMIDE],> 20 µM,> 20 µM
CCOC(=O)/C=C(C)/C=C/C=C(C)/C=C/c1c(C)cc(OC)c(C)c1C [ETRETINATE],> 20 µM,> 20 µM
CCC(N)Cc1c[nH]c2ccccc12 (configuration not stated) [ETRYPTAMINE],> 20 µM,> 20 µM
CC12CCC(CC1)C(C)(C)O2 [EUCALYPTOL],> 20 µM,> 20 µM
CC1CC(OC(=O)C(O)c2ccccc2)CC(C)(C)N1C (configuration not stated) [EUCATROPINE],> 20 µM,> 20 µM
C=CC(=O)N1CCC(CNc2ncnc(N)c2-c2ccc(Oc3ccccc3)cc2)CC1 [EVOBRUTINIB],> 20 µM,> 20 µM
Cc1nccn1Cc1cc(-c2ccc(F)c(C(F)F)c2)cnn1 [EVT-101 FREE BASE],> 20 µM,> 20 µM
CCCCCCOc1ccccc1C(N)=O [EXALAMIDE],> 20 µM,> 20 µM
C=C1C[C@@H]2[C@H](CC[C@]3(C)C(=O)CC[C@@H]23)[C@@]2(C)C=CC(=O)C=C12 [EXEMESTANE],> 20 µM,> 20 µM
CC1=C(CC(=O)O)c2cc(F)ccc2/C1=C\c1ccc(S(C)(=O)=O)cc1 [EXISULIND],> 20 µM,> 20 µM
O=C1[C@H](CC[C@H](O)c2ccc(F)cc2)[C@@H](c2ccc(O)cc2)N1c1ccc(F)cc1 [EZETIMIBE],> 20 µM,> 20 µM
Cc1[nH]cnc1C[C@H]1CCc2c(C)c3ccccc3n2C1=O [FABESETRON],> 20 µM,> 20 µM
C=CCN1CCC[C@H]1CNC(=O)c1cc(CCCF)cc(OC)c1OC [FALLYPRIDE],> 20 µM,> 20 µM
CC(=O)OCC(CCn1cnc2cnc(N)nc21)COC(C)=O [FAMCICLOVIR],> 20 µM,> 20 µM
NC(N)=Nc1nc(CSCC/C(N)=N/S(N)(=O)=O)cs1 [FAMOTIDINE],> 20 µM,> 20 µM
CC(C)c1c(CN(C)C(C)Cc2ccccc2)n(C)n(-c2ccccc2)c1=O (configuration not stated) [FAMPROFAZONE],> 20 µM,> 20 µM
O=S1(=O)c2cccc3cccc(c23)N1CCCN1CCN(c2ccc(F)cc2)CC1 [FANANSERIN],> 20 µM,> 20 µM
CN(C)CCCn1c(=O)c2ccccc2c2ccccc21 [FANTRIDONE],> 20 µM,> 20 µM
O=C(c1ccc2nonc2c1)N1CCCCC1 [FARAMPATOR],> 20 µM,> 20 µM
O=S(=O)(c1cccc2cnccc12)N1CCCNCC1 [FASUDIL],> 20 µM,> 20 µM
Cc1cnc(Nc2ccc(OCCN3CCCC3)cc2)nc1Nc1cccc(S(=O)(=O)NC(C)(C)C)c1 [FEDRATINIB],> 20 µM,> 20 µM
NC(=O)OCC(COC(N)=O)c1ccccc1 [FELBAMATE],> 20 µM,> 20 µM
O=C(O)Cc1ccc(-c2ccccc2)cc1 [FELBINAC],> 20 µM,> 20 µM
CCOC(=O)C1=C(C)NC(C)=C(C(=O)OC)C1c1cccc(Cl)c1Cl (configuration not stated) [FELODIPINE],> 20 µM,> 20 µM
CCOC(=O)C(CC)(C(=O)NCCN(CC)CC)c1ccccc1 (configuration not stated) [FENALAMIDE],> 20 µM,> 20 µM
O=C(O)c1ccccc1Nc1ccccc1 [FENAMIC ACID],> 20 µM,> 20 µM

SMILES,IC50,IC50 (read-out: pIC50 (converted))
COC(=O)Nc1nc2cc(Sc3ccccc3)ccc2[nH]1 [FENBENDAZOLE],> 20 µM,> 20 µM
O=C(O)CCC(=O)c1ccc(-c2ccccc2)cc1 [FENBUFEN],> 20 µM,> 20 µM
CCNC1C2CCC(C2)C1c1ccccc1 (configuration not stated) [FENCAMFAMIN],> 20 µM,> 20 µM
O=C(O)Cc1csc(-c2ccc(Cl)cc2)n1 [FENCLOZIC ACID],> 20 µM,> 20 µM
CC(NCCC(c1ccccc1)c1ccccc1)c1ccccc1 (configuration not stated) [FENDILINE],> 20 µM,> 20 µM
C[C@H]1CN(C2COC2)CCN1c1ccc(Nc2cc(-c3ccnc(N4CCn5c(cc6c5CC(C)(C)C6)C4=O)c3CO)cn(C)c2=O)nc1 [FENEBRUTINIB],> 20 µM,> 20 µM
CCNC(C)Cc1cccc(C(F)(F)F)c1 (configuration not stated) [FENFLURAMINE],> 20 µM,> 20 µM
CCCC/N=C(/c1cc(Cl)ccc1O)c1ccccc1Cl [FENGABINE],> 20 µM,> 20 µM
CC1NC(=O)COC1c1ccccc1 (configuration not stated) [FENMETRAMIDE],> 20 µM,> 20 µM
CC(C)(Oc1ccc(C(=O)c2ccc(Cl)cc2)cc1)C(=O)O [FENOFIBRIC ACID],> 20 µM,> 20 µM
Oc1ccc(C2CNCCc3c2cc(O)c(O)c3Cl)cc1 (configuration not stated) [FENOLDOPAM],> 20 µM,> 20 µM
CC(C(=O)O)c1cccc(Oc2ccccc2)c1 (configuration not stated) [FENOPROFEN],> 20 µM,> 20 µM
O=C(CN1CCN(Cc2ccc3c(c2)OCO3)CC1)N1c2ccccc2Sc2ccccc21 [FENOVERINE],> 20 µM,> 20 µM
CC(Cc1ccc(C(C)(C)C)cc1)CN1CCCCC1 (configuration not stated) [FENPROPIDIN],> 20 µM,> 20 µM
NS(=O)(=O)c1cc2c(cc1Cl)NC(c1ccccc1)NC2=O (configuration not stated) [FENQUIZONE],> 20 µM,> 20 µM
O=C(O)Cc1sc(-c2ccccc2)nc1-c1ccc(Cl)cc1 [FENTIAZAC],> 20 µM,> 20 µM
Oc1ccc(Cl)cc1Sc1cc(Cl)ccc1O [FENTICLOR],> 20 µM,> 20 µM
Clc1ccc(C(Cn2ccnc2)OCc2ccc(Sc3ccccc3)cc2)c(Cl)c1 (configuration not stated) [FENTICONAZOLE],> 20 µM,> 20 µM
CC(C)=CCC1C(=O)N(c2ccccc2)N(c2ccccc2)C1=O [FEPRAZONE],> 20 µM,> 20 µM
COc1cc(/C=C/C(=O)O)ccc1O [FERULATE],> 20 µM,> 20 µM
COc1cc(CCc2cc(NC(=O)c3ccc(N4C[C@@H](C)N[C@@H](C)C4)cc3)n[nH]2)cc(OC)c1 [FEXAGRATINIB],> 20 µM,> 20 µM
CC(C)(C(=O)O)c1ccc(C(O)CCCN2CCC(C(O)(c3ccccc3)c3ccccc3)CC2)cc1 (configuration not stated) [FEXOFENADINE],> 20 µM,> 20 µM
COCCNc1cc(NC(=O)N2CCCc3cc(CN4CCN(C)CC4=O)c(C=O)nc32)ncc1C#N [FGF401],> 20 µM,> 20 µM
Cc1nc2ccc(-n3ncc(C(=O)c4cc5ccccc5[nH]4)c3N)cc2[nH]1 [FGFR INHIBITOR DEBIO 1347],> 20 µM,> 20 µM
O=c1[nH]c(=O)n([C@@H]2O[C@H](CO)[C@@H](O)[C@@H]2F)cc1I [FIALURIDINE],> 20 µM,> 20 µM
CCOc1ccc(-c2ccc(Cn3c(CC(C)(C)C(=O)O)c(SC(C)(C)C)c4cc(OCc5ccc(C)cn5)ccc43)cc2)cn1 [FIBOFLAPON],> 20 µM,> 20 µM

SMILES,IC50,IC50 (read-out: pIC50 (converted))
CON(C)C(=O)N1N=C(c2cc(F)ccc2F)S[C@@]1(CCCN)c1ccccc1 [FILANESIB],> 20 µM,> 20 µM
O=C(Nc1nc2cccc(-c3ccc(CN4CCS(=O)(=O)CC4)cc3)n2n1)C1CC1 [FILGOTINIB],> 20 µM,> 20 µM
COc1cc(C(=O)OC2CC3CCC(C2)N3C)ccc1O (configuration not stated) [FILLALBIN],> 20 µM,> 20 µM
COc1ccc(-c2nc(N3CCOCC3)c3sc(CN(C)c4ncc(C(=O)NO)cn4)cc3n2)cn1 [FIMEPINOSTAT],> 20 µM,> 20 µM
CCCCCCCCc1ccc(CCC(N)(CO)CO)cc1 [FINGOLIMOD],> 20 µM,> 20 µM
COc1ccc(C(=O)NC2(C(=O)O)Cc3ccccc3C2)cc1OCCc1cccc(C)c1 [FIPAXALPARANT],> 20 µM,> 20 µM
O=C(COc1ccc(Cl)cc1)N1CCN(Cc2ccc3c(c2)OCO3)CC1 [FIPEXIDE],> 20 µM,> 20 µM
N#Cc1nn(-c2c(Cl)cc(C(F)(F)F)cc2Cl)c(N)c1[S+]([O-])C(F)(F)F (configuration not stated) [FIPRONIL],> 20 µM,> 20 µM
COc1ccccc1[C@H](Cn1c(=O)n(C(C)(C)C(=O)O)c(=O)c2c(C)c(-c3ncco3)sc21)OC1CCOCC1 [FIRSOCOSTAT],> 20 µM,> 20 µM
O=c1cc(-c2ccccc2)oc2ccccc12 [FLAVONE],> 20 µM,> 20 µM
O=c1c(O)c(-c2ccccc2)oc2ccccc12 [FLAVONOL],> 20 µM,> 20 µM
Cc1c(-c2ccccc2)oc2c(C(=O)OCCN3CCCCC3)cccc2c1=O [FLAVOXATE],> 20 µM,> 20 µM
CN1CCC(O)(c2ccc(F)cc2)C(C(=O)c2ccc(F)cc2)C1 (configuration not stated) [FLAZALONE],> 20 µM,> 20 µM
O=C(NCC1CCCCN1)c1cc(OCC(F)(F)F)ccc1OCC(F)(F)F (configuration not stated) [FLECAINIDE],> 20 µM,> 20 µM
CN1CCN(c2c(F)cc3c(=O)c(C(=O)O)cn(CCF)c3c2F)CC1 [FLEROXACIN],> 20 µM,> 20 µM
CC(C)(CNC(N)=O)NCC(O)COC(=O)c1ccccc1F (configuration not stated) [FLESTOLOL],> 20 µM,> 20 µM
O=c1[nH]c2ccccc2n1CCN1CCN(c2cccc(C(F)(F)F)c2)CC1 [FLIBANSERIN],> 20 µM,> 20 µM
COc1ccc(Cl)cc1[C@]1(F)C(=O)Nc2cc(C(F)(F)F)ccc21 [FLINDOKALNER],> 20 µM,> 20 µM
O=C(OCC(O)CO)c1ccccc1Nc1ccnc2c(C(F)(F)F)cccc12 (configuration not stated) [FLOCTAFENINE],> 20 µM,> 20 µM
CNc1ccc(/C=C/c2ccc(OCCOCCOCCF)nc2)cc1 [FLORBETAPIR],> 20 µM,> 20 µM
Fc1ccc(-c2ccc3c(c2)[nH]c2ccncc23)cn1 [FLORTAUCIPIR],> 20 µM,> 20 µM
Cn1cc([S+](C)[O-])c(=O)c2ccc(F)cc21 (configuration not stated) [FLOSEQUINAN],> 20 µM,> 20 µM
Cc1onc(-c2c(F)cccc2Cl)c1C(=O)N[C@@H]1C(=O)N2[C@@H]1SC(C)(C)[C@@H]2C(=O)O [FLOXACILLIN],> 20 µM,> 20 µM
O=c1[nH]c(=O)n([C@H]2C[C@H](O)[C@@H](CO)O2)cc1F [FLOXURIDINE],> 20 µM,> 20 µM

# From ChEMBL document CHEMBL4651402, “Screening of ~5500 FDA-approved drugs and clinical candidates for anti-SARS-CoV-2 activity” (2021)
